Legend:
[1] = molecular target: T1, recombinant BRD4 (BD1 + BD2) (Homo sapiens, UniProt O60885); assay: BRD4 TR-FRET activity assay; type: binding; conditions: 1 μmol/L; read-out: BRD4 inhibition rate;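 note: signal rises with BET ligand binding to the bromodomains, so inhibitors lower it, 120 min incubation at room temperature, 1% DMSO, wells lacking ligand as negative control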
T1 construct: employing a recombinant BRD4 (BD1 + BD2) and its corresponding ligand
Method: The BRD4 activity assay utilized TR-FRET technology, employing a recombinant BRD4 (BD1 + BD2) and its corresponding ligand. The TR-FRET signal generated in the assay is proportional to the ligand’s binding to the bromodomains. All reactions contained a final DMSO concentration of 1%. All binding reactions were conducted at room temperature. Each 20 µL reaction mixture, in assay buffer, comprised bromodomains, the BET Ligand, and the specified inhibitor amount. For the negative control, 5 µL of assay buffer replaced the BET ligand. After a 120-min incubation with the ligand, the TR-FRET signal was captured using a Tecan Infinite M1000 plate reader. IC50 values were determined through nonlinear regression with a normalized dose-response fit in Prism GraphPad software.

Structure (SMILES) | inhibition at 1 µM [1] [%] | melting point [°C]
Cc1noc(C)c1-c1cc(Cc2n[nH]c(=O)c3ccccc23)cc(C(N)=O)c1 [DDT01] | 15 | 
CNC(=O)c1cc(Cc2n[nH]c(=O)c3ccccc23)cc(-c2c(C)noc2C)c1 [DDT02] | 5 | > 250
Cc1noc(C)c1-c1cc(Cc2n[nH]c(=O)c3ccccc23)cc(C(=O)NC2CCCC2)c1 [DDT03] | 67 | > 250
Cc1noc(C)c1-c1cc(Cc2n[nH]c(=O)c3ccccc23)cc(C(=O)NC2CCCCC2)c1 [DDT04] | 56 | 178 to 179
Cc1noc(C)c1-c1cc(Cc2n[nH]c(=O)c3ccccc23)cc(C(=O)Nc2ccccc2)c1 [DDT05] | 35 | 192 to 193
Cc1noc(C)c1-c1cc(Cc2n[nH]c(=O)c3ccccc23)cc(C(=O)NCc2ccccc2)c1 [DDT06] | 4 | 
Cc1noc(C)c1-c1cc(Cc2n[nH]c(=O)c3ccccc23)cc(C(=O)NCc2cccnc2)c1 [DDT07] | 8 | > 250
Cc1noc(C)c1-c1cc(Cc2n[nH]c(=O)c3ccccc23)cc(C(=O)NC2CCOCC2)c1 [DDT08] | 11 | 
Cc1noc(C)c1-c1cc(Cc2n[nH]c(=O)c3ccccc23)cc(C(=O)NC2CCS(=O)(=O)CC2)c1 [DDT09] | 4 | 
Cc1noc(C)c1-c1cc(Cc2n[nH]c(=O)c3ccccc23)cc(C(=O)N[C@H]2CC[C@H](O)CC2)c1 [DDT10] | 36 | 199 to 200
Cc1noc(C)c1-c1cc(Cc2n[nH]c(=O)c3ccccc23)cc(C(=O)N[C@H]2CC[C@@H](O)CC2)c1 [DDT11] | 54 | 214 to 215
Cc1noc(C)c1-c1cc(Cc2n[nH]c(=O)c3ccccc23)cc(C(=O)N2CCC(=O)C2)c1 [DDT12] | 38 | 241 to 243
Cc1noc(C)c1-c1cc(Cc2n[nH]c(=O)c3ccccc23)cc(C(=O)N2CC[C@@H](O)C2)c1 [DDT13] | 71 | 
Cc1noc(C)c1-c1cc(Cc2n[nH]c(=O)c3ccccc23)cc(C(=O)N2CCNCC2)c1 [DDT15] | 59 | 
Cc1noc(C)c1-c1cc(Cc2n[nH]c(=O)c3ccccc23)cc(C(=O)N2CCOCC2)c1 [DDT16] | 71 | 241 to 242
Cc1noc(C)c1-c1cc(Cc2n[nH]c(=O)c3ccccc23)cc(C(=O)N2CCN(C(=O)C3CC3)CC2)c1 [DDT17] | 16 | 154 to 155
Cc1noc(C)c1-c1cc(Cc2n[nH]c(=O)c3ccccc23)cc(C(=O)N2CCn3nc(C(F)(F)F)nc3C2)c1 [DDT18] | 37 | 161 to 162
Cc1noc(C)c1-c1cc(Cc2n[nH]c(=O)c3ccccc23)cc(C(=O)N2CCC[C@H](O)C2)c1 [DDT19] | 11 | 157 to 158
Cc1noc(C)c1-c1cc(Cc2n[nH]c(=O)c3ccccc23)cc(C(=O)N2CCC[C@@H](O)C2)c1 [DDT20] | 4 | 
Cc1noc(C)c1-c1cc(Cc2n[nH]c(=O)c3ccccc23)cc(C(=O)N2CCC(O)CC2)c1 [DDT21] | 19 | 176 to 177
Cc1noc(C)c1-c1cc(Cc2n[nH]c(=O)c3ccccc23)cc(NC(=O)c2ccccc2)c1 [DDT22] | 64 | 173 to 174
Cc1noc(C)c1-c1cc(Cc2n[nH]c(=O)c3ccccc23)cc(NC(=O)c2cccc(C(F)(F)F)c2)c1 [DDT27] | 60 | 231 to 232

Structure (SMILES) | inhibition at 1 µM [1] [%] | melting point [°C]
Cc1noc(C)c1-c1cc(Cc2n[nH]c(=O)c3ccccc23)cc(NC(=O)c2ccc(C(F)(F)F)cc2)c1 [DDT28] | 54 | 
Cc1noc(C)c1-c1cc(Cc2n[nH]c(=O)c3ccccc23)cc(NC(=O)c2cccc([N+](=O)[O-])c2)c1 [DDT29] | 65 | > 250
Cc1noc(C)c1-c1cc(Cc2n[nH]c(=O)c3ccccc23)cc(NC(=O)c2ccc([N+](=O)[O-])cc2)c1 [DDT30] | 74 | 
Cc1noc(C)c1-c1cc(Cc2n[nH]c(=O)c3ccccc23)cc(NC(=O)c2cccc(N)c2)c1 [DDT31] | 71 | 236 to 237
Cc1noc(C)c1-c1cc(Cc2n[nH]c(=O)c3ccccc23)cc(NC(=O)c2ccc(N)cc2)c1 [DDT32] | 54 | 188 to 189
Cc1noc(C)c1-c1cc(Cc2n[nH]c(=O)c3ccccc23)cc(NCc2ccccc2)c1 [DDT33] | 3 | 230 to 231
Cc1noc(C)c1-c1cc(Cc2n[nH]c(=O)c3ccccc23)cc(NCc2cccc(F)c2)c1 [DDT34] | 3 | 
Cc1noc(C)c1-c1cc(Cc2n[nH]c(=O)c3ccccc23)cc(NCc2ccc(F)cc2)c1 [DDT35] | 3 | 
Cc1noc(C)c1-c1cc(Cc2n[nH]c(=O)c3ccccc23)cc(NCc2cccc([N+](=O)[O-])c2)c1 [DDT36] | 3 | 229 to 230
Cc1noc(C)c1-c1cc(Cc2n[nH]c(=O)c3ccccc23)cc(NCc2ccc([N+](=O)[O-])cc2)c1 [DDT37] | 8 | 
Cc1noc(C)c1-c1cc(Cc2n[nH]c(=O)c3ccccc23)cc(NCc2cccc(Cl)c2)c1 [DDT38] | 8 | 235 to 236
Cc1noc(C)c1-c1cc(Cc2n[nH]c(=O)c3ccccc23)cc(NCc2ccc(Cl)cc2)c1 [DDT39] | 16 | 200 to 201
Cc1noc(C)c1-c1cc(Cc2n[nH]c(=O)c3ccccc23)cc(NCc2cccc(Br)c2)c1 [DDT40] | 3 | 235 to 236
Cc1noc(C)c1-c1cc(Cc2n[nH]c(=O)c3ccccc23)cc(NCc2ccc(Br)cc2)c1 [DDT41] | 17 | 200 to 201
Cc1noc(C)c1-c1cc(Cc2n[nH]c(=O)c3ccccc23)cc(NCc2ccc(Br)cc2F)c1 [DDT42] | 3 | 
Cc1noc(C)c1-c1cc(Cc2n[nH]c(=O)c3ccccc23)cc(NCc2ccc(F)c(Br)c2)c1 [DDT43] | 4 | > 250
Cc1cccc(CNc2cc(Cc3n[nH]c(=O)c4ccccc34)cc(-c3c(C)noc3C)c2)c1 [DDT44] | 3 | 
Cc1ccc(CNc2cc(Cc3n[nH]c(=O)c4ccccc34)cc(-c3c(C)noc3C)c2)cc1 [DDT45] | 7 | 215 to 216
Cc1noc(C)c1-c1cc(Cc2n[nH]c(=O)c3ccccc23)cc(NCc2ccc(C(F)(F)F)cc2)c1 [DDT46] | 39 | 220 to 221
CCS(=O)(=O)Nc1cc(Cc2n[nH]c(=O)c3ccccc23)cc(-c2c(C)noc2C)c1 [DDT50] | 69 | 195 to 196
CCCS(=O)(=O)Nc1cc(Cc2n[nH]c(=O)c3ccccc23)cc(-c2c(C)noc2C)c1 [DDT51] | 4 | 165 to 166
CCCCS(=O)(=O)Nc1cc(Cc2n[nH]c(=O)c3ccccc23)cc(-c2c(C)noc2C)c1 [DDT52] | 6 | 147 to 148

Structure (SMILES) | inhibition at 1 µM [1] [%] | melting point [°C]
COCCS(=O)(=O)Nc1cc(Cc2n[nH]c(=O)c3ccccc23)cc(-c2c(C)noc2C)c1 [DDT53] | 9 | 181 to 182
Cc1noc(C)c1-c1cc(Cc2n[nH]c(=O)c3ccccc23)cc(NS(=O)(=O)C(C)C)c1 [DDT54] | 3 | 
Cc1noc(C)c1-c1cc(Cc2n[nH]c(=O)c3ccccc23)cc(NS(=O)(=O)C2CC2)c1 [DDT55] | 32 | 140 to 141
Cc1noc(C)c1-c1cc(Cc2n[nH]c(=O)c3ccccc23)cc(NS(=O)(=O)C2CCCCC2)c1 [DDT56] | 24 | 
Cc1noc(C)c1-c1cc(Cc2n[nH]c(=O)c3ccccc23)cc(NS(=O)(=O)c2ccccc2)c1 [DDT57] | 36 | 
Cc1cccc(S(=O)(=O)Nc2cc(Cc3n[nH]c(=O)c4ccccc34)cc(-c3c(C)noc3C)c2)c1 [DDT58] | 71 | 
Cc1ccc(S(=O)(=O)Nc2cc(Cc3n[nH]c(=O)c4ccccc34)cc(-c3c(C)noc3C)c2)cc1C [DDT61] | 49 | 
Cc1noc(C)c1-c1cc(Cc2n[nH]c(=O)c3ccccc23)cc(NS(=O)(=O)c2ccc(C(C)C)cc2)c1 [DDT64] | 69 | 
Cc1ccc(S(=O)(=O)Nc2cc(Cc3n[nH]c(=O)c4ccccc34)cc(-c3c(C)noc3C)c2)cn1 [DDT66] | 8 | 
COc1ccccc1S(=O)(=O)Nc1cc(Cc2n[nH]c(=O)c3ccccc23)cc(-c2c(C)noc2C)c1 [DDT67] | 24 | 
Cc1noc(C)c1-c1cc(Cc2n[nH]c(=O)c3ccccc23)cc(NS(=O)(=O)c2ccc3c(c2)OCCO3)c1 [DDT71] | 67 | 
CC(=O)Nc1ccc(S(=O)(=O)Nc2cc(Cc3n[nH]c(=O)c4ccccc34)cc(-c3c(C)noc3C)c2)cc1 [DDT73] | 38 | 
Cc1noc(C)c1-c1cc(Cc2n[nH]c(=O)c3ccccc23)cc(NS(=O)(=O)Cc2ccccc2)c1 [DDT76] | 50 | 
Cc1ccc(CS(=O)(=O)Nc2cc(Cc3n[nH]c(=O)c4ccccc34)cc(-c3c(C)noc3C)c2)cc1 [DDT78] | 55 | 
Cc1noc(C)c1-c1cc(Cc2n[nH]c(=O)c3ccccc23)cc(NS(=O)(=O)c2cccc(C(F)(F)F)c2)c1 [DDT81] | 20 | 
Cc1noc(C)c1-c1cc(Cc2n[nH]c(=O)c3ccccc23)cc(NS(=O)(=O)c2ccc([N+](=O)[O-])cc2)c1 [DDT83] | 28 | 
Cc1noc(C)c1-c1cc(Cc2n[nH]c(=O)c3ccccc23)cc(NS(=O)(=O)c2ccccc2F)c1 [DDT84] | 14 | 
Cc1noc(C)c1-c1cc(Cc2n[nH]c(=O)c3ccccc23)cc(NS(=O)(=O)c2cccc(F)c2)c1 [DDT85] | 5 | 
Cc1noc(C)c1-c1cc(Cc2n[nH]c(=O)c3ccccc23)cc(NS(=O)(=O)c2ccc(Cl)cc2Cl)c1 [DDT90] | 4 | 
Cc1noc(C)c1-c1cc(Cc2n[nH]c(=O)c3ccccc23)cc(NS(=O)(=O)c2ccc(Br)cc2)c1 [DDT93] | 26 | 
